PubChem BioAssay (NCI)
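Assay format: 96-well plates, 48-hour exposure. TGI is the concentration that stops growth completely.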

Experiments:
Assay in all cases: DTP human tumour cell line panel, 48 h
SW-620 colon = tested on: SW-620 colon
K-562 leukemia = tested on: K-562 leukemia
SK-OV-3 ovarian = tested on: SK-OV-3 ovarian
OVCAR-3 ovarian = tested on: OVCAR-3 ovarian
786-0 renal = tested on: 786-0 renal
SNB-75 CNS = tested on: SNB-75 CNS
TK-10 renal = tested on: TK-10 renal
SF-295 CNS = tested on: SF-295 CNS
BT-549 breast = tested on: BT-549 breast
M14 melanoma = tested on: M14 melanoma

SMILES	TGI (SW-620 colon) [µM]	TGI (K-562 leukemia) [µM]	TGI (SK-OV-3 ovarian) [µM]	TGI (OVCAR-3 ovarian) [µM]	TGI (786-0 renal) [µM]	TGI (SNB-75 CNS) [µM]	TGI (TK-10 renal) [µM]	TGI (SF-295 CNS) [µM]	TGI (BT-549 breast) [µM]	TGI (M14 melanoma) [µM]
Cc1nc2ccccc2n1CCc1nc2ccccc2[nH]1	> 100	> 100	> 100	> 100	> 100	> 100	> 100	> 100	> 100	> 100
NC(=S)NS(=O)(=O)c1ccc(Cl)cc1Cl	> 100	> 100	> 100	> 100	> 100	> 100	> 100	> 100	> 100	> 100
CC[N+]1(C)CCC(O)(/C=C/c2ccc(Cl)c(Cl)c2)C(C(=O)/C=C/c2ccc(Cl)c(Cl)c2)C1 (stereo not drawn)	4.47	4.07	16.5	10.6	3.46	12.2	6.58	13.9	7.44	> 23.3
O=c1c2cc(Cl)ccc2n2nnc3ccc(NCCNCCO)c1c32	2.51	10.9	6.26	4.16	2.02	0.286	6.24	1.38	5.22	2.88
C=CC(=O)N1C/C(=C\c2ccc(F)cc2)C(=O)/C(=C/c2ccc(F)cc2)C1	> 100	> 100	2.38	1.19	0.346	1.94	2.84	1.2	1.2	1.38
C=C1C[C@]23CC[C@@H]4C(CO)(CO)CC(=O)C[C@]4(C)[C@@H]2C(O)C[C@H]1C3 (stereo partly drawn)	> 100	> 100	> 100	> 100	> 100	> 100	> 100	> 100	> 100	> 100
Oc1cc(Br)cc2cc(Br)cnc12	> 100	94.2	> 100		71.1	> 100	> 100	28	> 100	29.2
C=C1C(=O)O[C@H]2[C@@H](O)[C@H](C)CCC/C(C)=C/CC[C@@]3(C)O[C@@H]3C[C@@H]12	39.9	> 100	34.2	31.1	14.9	29.6	3.95	34.9	14.5	18.4
CCCS(=O)OC1C(C2COC(C)(C)O2)OC2OC(C)(C)OC21 (stereo not drawn)	32.8	> 100	> 86.8	29.3	27.8	> 48.8	31.3	36.1	24.5	37.8
C1CN(C23OC4(N5CCOCC5)C5C6CC(C7C6C4C72)C53)CCO1 (stereo not drawn)	> 100	> 100	> 100	> 100	> 100	> 100	> 100	> 100	> 100	> 100
CCSc1nn(-c2c3ccccc3nc3ccccc23)c(=S)s1	> 100	> 100	> 100	> 100	> 100	> 100	> 100	> 100	> 100	> 100
C[C@@H](CC(O)C(O)C(C)(C)O)C1CCC23CC12CCC1[C@@]2(C)CCC(=O)C(C)(C)C2CC(OC2OC(CO)C(O)C(O)C2O)[C@]13C (stereo partly drawn)	> 10	> 10	> 10	> 10	> 10	> 10	> 10	> 10	> 10	> 10
NC(=O)CN1CCN(c2nc(N3CCCC3)c3nc(Cl)c(NCc4ccccc4)nc3n2)CC1	31.4	21	20.4	16.3	18	24.4	34.7	16.3	19.5	17.5
O=[N+]([O-])c1ccc(-c2nc3ccccc3o2)cc1	> 100	> 100	> 100	> 100	> 100	> 100	> 100	> 100	> 100	> 100
COc1ccc(/C=C(\C#N)c2nc(-c3cc4ccccc4oc3=O)cs2)cc1	66.8	> 100	36.6		41.4	59.5	65.6	55.9	30.3	86
NC(Cc1ccccc1)C(=O)O (stereo not drawn)	> 100	> 100	> 100	> 100	> 100	> 100	> 100	> 100	> 100	> 100
Cc1ccc2c3ccc4c(c3n(C)c2c1)C(=O)C=CC4=O	4.58	3.75	> 10	8.6	5.63	> 10	> 10	> 10	> 7.22	> 10
